The results in this text go back to US9518064B2, “Imidazothiadiazole and imidazopyridazine derivatives as protease activated receptor 4 (PAR4) inhibitors for treating platelet aggregation” (BRISTOL-MYERS SQUIBB COMPANY, priority 2012, dated 2016).

The target of one experiment is T1, PAR4 (Homo sapiens (Human), UniProt Q96RI0). The experiment can be described thus: FLIPR assay in PAR4-expressing HEK293 cells (calcium mobilization). The conditions noted are these: PAR4 antagonist activity, FLIPR assay as described in Example A. The format is cell-based. (In general: Calcium assays in cells follow changes in intracellular calcium, usually with a dye or a luminescent sensor.)
T1 sequence (Q96RI0 18-385): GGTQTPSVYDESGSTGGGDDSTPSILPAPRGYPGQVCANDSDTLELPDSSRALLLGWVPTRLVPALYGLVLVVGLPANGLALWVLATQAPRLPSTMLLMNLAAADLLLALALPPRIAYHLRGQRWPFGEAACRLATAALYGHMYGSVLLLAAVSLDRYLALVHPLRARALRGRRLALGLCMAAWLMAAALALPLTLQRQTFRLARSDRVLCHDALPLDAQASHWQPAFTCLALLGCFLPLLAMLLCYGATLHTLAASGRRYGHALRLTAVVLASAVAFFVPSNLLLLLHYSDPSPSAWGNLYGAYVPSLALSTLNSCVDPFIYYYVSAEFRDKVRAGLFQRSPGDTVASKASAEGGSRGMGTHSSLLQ
In the case of `COc1cc(OCc2cccc(-c3ccc(C(=O)OC(C)(C)C)nc3)c2)c2cc(-c3cn4nc(OC)sc4n3)oc2c1` [Example 60], the half-inhibitory concentration (IC50) is 4.18 nM. Still for that read-out and setting: for `COc1cc(OCc2cccc(C3=CCOCC3)c2)c2cc(-c3cn4nc(OC)sc4n3)oc2c1` [Example 93] the value was 0.71 nM; for `COc1cc(OCc2cccc(-c3ccc4c(c3)OCO4)c2)c2cc(-c3cn4nc(OC)sc4n3)oc2c1` [Example 18], 3.5 nM; for `COc1nn2cc(-c3nc4c(OCc5cccc(-c6ccoc6)c5)cccc4o3)nc2s1` [Example 81, 4-((3-(Furan-3-yl)benzyl)oxy)-2-(2-methoxyimidazo[2,1-b][1,3,4]thiadiazol-6-yl)benzo[d]oxazole], 22.1 nM. In the case of `COc1cc(OCc2ccnc(C3COc4ccccc4O3)n2)c2cc(-c3cn4nc(OC)sc4n3)oc2c1` (stereo not drawn) [Example 104], the IC50 worked out at 0.85 nM. As for `COc1cc(OCc2cc(F)cc(-c3cnc(OC)nc3)c2)c2cc(-c3cn4nc(OC)sc4n3)oc2c1` [Example 83, 6-(4-((3-Fluoro-5-(2-methoxypyrimidin-5-yl)benzyl)oxy)-6-methoxybenzofuran-2-yl)-2-methoxyimidazo[2,1-b][1,3,4]thiadiazole], the IC50 amounted to 0.39 nM. Same read-out and setting: for `COc1cc(OCc2cccc(-c3ncc(F)cc3F)c2)c2cc(-c3cn4nc(OC)sc4n3)oc2c1` [Example 33] the value was 0.67 nM; for `COc1cc(OCc2cccc(-c3ccc(F)nc3)c2)c2cc(-c3cn4nc(OC)sc4n3)oc2c1` [Example 7], 1.29 nM. Take `COc1cc(OCc2cncc(-c3cnc(OC)nc3)c2)c2cc(-c3cn4nc(OC)sc4n3)oc2c1` [Example 75]: the IC50 was determined as 2.14 nM. The same measure, in the same setting: for `COc1cc(OCc2cccc(-c3ccc(O)cc3)c2)c2cc(-c3cn4nc(OC)sc4n3)oc2c1` [Example 90] the value was 4.91 nM; for `COc1cc(OCc2cccc(-c3csc(C)n3)c2)c2cc(-c3cn4nc(OC)sc4n3)oc2c1` [Example 11], 3.66 nM. The same measure, in the same setting: for `COc1cc(OCc2cccc(-c3ccc(C(C)OC4CCCCO4)cn3)c2)c2cc(-c3cn4nc(OC)sc4n3)oc2c1` (stereo not drawn) [Example 86, 2-Methoxy-6-(6-methoxy-4-((3-(5-(1-((tetrahydro-2H-pyran-2-yl)oxy)ethyl)pyridin-2-yl)benzyl)oxy)benzofuran-2-yl)imidazo[2,1-b][1,3,4]thiadiazole] the value was 0.56 nM; for `COc1cnc(-c2cccc(COc3cc(Cl)cc4oc(-c5cn6nc(OC)sc6n5)cc34)c2)cn1` [Example 108, 6-(6-Chloro-4-((3-(5-methoxypyrazin-2-yl)benzyl)oxy)benzofuran-2-yl)-2-methoxyimidazo[2,1-b][1,3,4]thiadiazole], 1.43 nM; for `COc1cc(OCc2cccc(-c3cccnc3)c2)c2cc(-c3cn4nc(OC)sc4n3)oc2c1` [Example 15], 6.4 nM. Still for that read-out and setting: for `COc1cc(OCc2cccc(-c3cc4ccccc4s3)c2)c2cc(-c3cn4nc(OC)sc4n3)oc2c1` [Example 4] the value was 9.35 nM; for `COc1cc(OCc2cccc(-c3ccc(F)cc3F)c2)c2cc(-c3cn4nc(OC)sc4n3)oc2c1` [Example 17], 3.78 nM. Regarding `COc1cc(OCc2cccc(C3(OC)CCOCC3)n2)c2cc(-c3cn4nc([C@H](C)F)sc4n3)oc2c1` [Example 112, (S)-2-(1-Fluoroethyl)-6-(6-methoxy-4-((6-(4-methoxytetrahydro-2H-pyran-4-yl)pyridin-2-yl)methoxy)benzofuran-2-yl)imidazo[2,1-b][1,3,4]thiadiazole], the IC50 came to 0.36 nM. For `COc1cc(OCc2cccc(-c3cnc(OC)cc3C)c2)c2cc(-c3cn4nc(OC)sc4n3)oc2c1` [Example 51], the IC50 stood at 1.19 nM. Take `COc1cc(OCc2cccc(-c3ccc(Cl)cn3)c2)c2cc(-c3cn4nc(OC)sc4n3)oc2c1` [Example 36]: the IC50 is 0.38 nM. Same read-out and setting: for `CSc1nn2cc(-c3nc4c(OCc5ccccc5-c5ccccc5)cccc4o3)nc2s1` [Example 80] the value was 3130 nM. Same read-out and setting: then `COc1ccc(-c2cc(F)cc(COc3cc(OC)cc4oc(-c5cn6nc(OC)sc6n5)cc34)c2)nc1` [Example 62, 6-(4-((3-Fluoro-5-(5-methoxypyridin-2-yl)benzyl)oxy)-6-methoxybenzofuran-2-yl)-2-methoxyimidazo[2,1-b][1,3,4]thiadiazole], with 0.84 nM; and `COc1cc(OCc2cccc(-c3ncc(Cl)cc3C)c2)c2cc(-c3cn4nc(OC)sc4n3)oc2c1` [Example 52], with 0.56 nM; and `COc1cc(OCc2cccc(C3CCCCC3)c2)c2cc(-c3cn4nc(OC)sc4n3)oc2c1` [Example 95], with 0.69 nM. The same measure, in the same setting: then `COc1cc(OCc2cccc(-c3ccc(Cl)nc3)n2)c2cc(-c3cn4nc(OC)sc4n3)oc2c1` [Example 76], with 6.66 nM; and `COc1ccc(-c2cccc(COc3cc(OC)cc4oc(-c5cn6nc(OC)sc6n5)cc34)n2)cc1` [Example 78], with 0.95 nM; and `COc1cc(OCc2cccc(-c3c(C)noc3C)c2)c2cc(-c3cn4nc(OC)sc4n3)oc2c1` [Example 5], with 2.36 nM. With `COc1ccc(-c2cccc(COc3cc(OC)cc4oc(-c5cn6nc(OC)sc6n5)cc34)c2)c(C)c1` [Example 8], the IC50 was found to be 1.69 nM. Still for that read-out and setting: then `COc1cc(OCc2cccc(-c3ccc(C(=O)O)nc3)c2)c2cc(-c3cn4nc(OC)sc4n3)oc2c1` [Example 84, 5-(3-(((6-Methoxy-2-(2-methoxyimidazo[2,1-b][1,3,4]thiadiazol-6-yl)benzofuran-4-yl)oxy)methyl)phenyl)picolinic acid], with 65 nM. Same read-out and setting: then `COc1cc(OCc2cccc(C3=CCCCC3)c2)c2cc(-c3cn4nc(OC)sc4n3)oc2c1` [Example 94], with 2.21 nM; and `COc1cc(OCc2cccc(-c3cnn(C)c3)c2)c2cc(-c3cn4nc(OC)sc4n3)oc2c1` [Example 10], with 3.55 nM. The same measure, in the same setting: for `COc1ccc(-c2cncc(COc3cc(OC)cc4oc(-c5cn6nc(OC)sc6n5)cc34)c2)cc1` [Example 73] the value was 2.18 nM.

The target in another experiment is T1, PAR4. The experiment can be described thus: Gamma thrombin induced platelet aggregation assay (PRP assay). The format is cell-based. As to conditions: γ-thrombin induced platelet aggregation in PRP.
For the compound `COc1cc(OCc2cccc(-c3ccc(C(=O)OC(C)(C)C)nc3)c2)c2cc(-c3cn4nc(OC)sc4n3)oc2c1` [Example 60], the IC50 turned out to be 81.3 nM.

For `COc1cc(OCc2cccc(-c3ccc([N+](=O)[O-])nc3)c2)c2cc(-c3cn4nc(OC)sc4n3)oc2c1` [Example 28], half-maximal inhibition (IC50) was put at 24.6 nM. Same read-out and setting: then `COc1cc(OCc2cccc(C3=CCOCC3)c2)c2cc(-c3cn4nc(OC)sc4n3)oc2c1` [Example 93], with 105 nM. Same read-out and setting: then `COc1cc(OCc2cccc(-c3ccc4c(c3)OCO4)c2)c2cc(-c3cn4nc(OC)sc4n3)oc2c1` [Example 18], with 68.2 nM. The same measure, in the same setting: then `COc1cc(OCc2cccc(-c3cccnc3C#N)c2)c2cc(-c3cn4nc(OC)sc4n3)oc2c1` [Example 26], with 970 nM. Regarding `COc1nn2cc(-c3nc4c(OCc5cccc(-c6ccoc6)c5)cccc4o3)nc2s1` [Example 81, 4-((3-(Furan-3-yl)benzyl)oxy)-2-(2-methoxyimidazo[2,1-b][1,3,4]thiadiazol-6-yl)benzo[d]oxazole], it took 5000 nM to reach half-maximal inhibition (IC50).

As for `COc1cc(OCc2cccc(-c3ccc4c(c3)OCCO4)c2)c2cc(-c3cn4nc(OC)sc4n3)oc2c1` [Example 31], the IC50 worked out at 49.9 nM. The same measure, in the same setting: then `COc1cc(OCc2cccc(-c3ccc(C#N)c(F)c3)c2)c2cc(-c3cn4nc(OC)sc4n3)oc2c1` [Example 30], with 125 nM; and `COc1cc(OCc2cccc(-c3ccc4nccn4c3)c2)c2cc(-c3cn4nc(OC)sc4n3)oc2c1` [Example 23], with 629 nM; and `COc1cc(OCc2cccc(-c3cncnc3)c2)c2cc(-c3cn4nc([C@H](C)F)sc4n3)oc2c1` [Example 64, (S)-2-(1-Fluoroethyl)-6-(6-methoxy-4-((3-(pyrimidin-5-yl)benzyl)oxy)benzofuran-2-yl)imidazo[2,1-b][1,3,4]thiadiazole], with 490 nM.

Compound `COc1cc(OCc2cccc(-c3ccc(F)cn3)c2)c2cc(-c3cn4nc([C@H](C)F)sc4n3)oc2c1` [Example 69] gave an IC50 of 13.1 nM.

Broadly, the IC50 is the concentration needed to halve the response being measured.
